Experimental data taken from PubChem BioAssay (NCI).
“And” between values parts separate entries of the source, which are not always exact repeats. Equal values may be shown once.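 In this assay, cells in 96-well plates receive the compound at five concentrations for 48 hours. Endpoints are linearly interpolated between the surrounding concentrations. GI50 is the concentration that inhibits growth by half. At the TGI there is no net growth.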

Columns and labels:
Test in all cases: NCI tumour cell line growth inhibition, 48 h
SK-MEL-5 melanoma = system: SK-MEL-5 melanoma
HCT-15 colon = system: HCT-15 colon
EKVX NSCLC = system: EKVX NSCLC
IGROV1 ovarian = system: IGROV1 ovarian
HCT-116 colon = system: HCT-116 colon
SNB-75 CNS = system: SNB-75 CNS
HL-60(TB) leukemia = system: HL-60(TB) leukemia
786-0 renal = system: 786-0 renal
HOP-62 NSCLC = system: HOP-62 NSCLC
OVCAR-4 ovarian = system: OVCAR-4 ovarian

SMILES | TGI (SK-MEL-5 melanoma) | TGI (HCT-15 colon) | TGI (EKVX NSCLC) [µM] | TGI (IGROV1 ovarian) | TGI (HCT-116 colon) | TGI (SNB-75 CNS) | TGI (HL-60(TB) leukemia) | TGI (786-0 renal) | TGI (HOP-62 NSCLC) | TGI (OVCAR-4 ovarian) | GI50 (SK-MEL-5 melanoma) [µM] | GI50 (HCT-15 colon) [µM] | GI50 (OVCAR-4 ovarian) [µM] | GI50 (IGROV1 ovarian) [µM] | GI50 (HCT-116 colon) [µM] | GI50 (SNB-75 CNS) [µM] | GI50 (HL-60(TB) leukemia) [µM] | GI50 (786-0 renal) [µM] | GI50 (HOP-62 NSCLC) [µM] | GI50 (EKVX NSCLC) [µM]
COc1cc2c(c3c1C=CCO3)C(=O)c1ccccc1C2=O | 78.6 µM | > 100 µM | > 100 | 78.5 µM | > 100 µM | > 100 µM | 57.7 µM | > 100 µM | > 100 µM | – | – | – | – | – | – | – | – | – | – | –
COC(=O)C(c1[nH]nc2ccccc12)C(C(=O)OC)c1[nH]nc2ccccc12 (stereo not given) | – | > 100 µM | > 100 | > 100 µM | > 100 µM | > 100 µM | 50.5 µM | > 100 µM | > 100 µM | 53.4 µM | – | – | – | – | – | – | – | – | – | –
O=C(Nc1nc2ccccc2s1)OCC(F)(F)F | > 100 µM | > 100 µM | – | > 100 µM | > 100 µM | > 100 µM | > 100 µM | > 100 µM | > 100 µM | > 100 µM | > 100 | > 100 | > 100 | > 100 | > 100 | > 100 | > 100 | > 100 | > 100 | –
COc1ccc2cc1Oc1ccc(cc1)C[C@H]1c3cc(c(OC)cc3CCN1C)Oc1c(OC)c(OC)cc3c1[C@H](C2)N(C)CC3 | 11.8 µM and 13.8 µM and > 100 µM | 16.5 µM and 18.5 µM | – | 19.6 µM and 27.8 µM and > 100 µM | 11.1 µM and 14.9 µM and > 100 µM | 13.4 µM and 10.3 µM and > 100 µM | 16.1 µM and 23.8 µM and > 100 µM | 12.4 µM and 18 µM and > 100 µM | 15.1 µM and 34.2 µM | 11.1 µM and 28.5 µM | 3.94 | 5.99 | 12.4 | 14.5 | 3.8 | 2.77 | – | 5.1 | 15.1 | –
COC(=O)C(C#N)=C1c2ccccc2Oc2ccccc21 | > 100 µM | > 100 µM | > 100 | > 100 µM | – | > 100 µM | 56.4 µM | > 100 µM | > 100 µM | > 100 µM | – | – | – | – | – | – | – | – | – | –
Cn1cc(NC(=O)c2cc(NC(=O)CCCCCCCCCCC(=O)Nc3cc(C(=O)Nc4cc(C(=O)NCCC(=N)N)n(C)c4)n(C)c3)cn2C)cc1C(=O)NCCC(=N)N | 87.8 µM | > 100 µM | 90.2 | > 100 µM | > 100 µM | > 100 µM | – | > 100 µM | 81.3 µM | > 100 µM | – | – | – | – | – | – | – | – | – | –
CNC(=O)c1ccccc1CC1(O)c2ccccc2Oc2ccccc21 | 13 µM | > 100 µM | – | > 100 µM | > 100 µM | 39 µM | – | 46.4 µM | 74.5 µM | > 100 µM | 3.2 | 12.7 | 27.8 | 26.4 | 21.8 | 12.4 | – | 20.3 | 17.2 | –
Cc1cc(=O)cc2sc3c(C)cccc3nc1-2 | 31.8 µM | > 100 µM | – | 54.9 µM | 60.5 µM | > 100 µM | 46.8 µM | 32.2 µM | > 100 µM | 30 µM | – | – | – | – | – | – | – | – | – | –
CCOC(=O)C1(CC)CCCCC(=O)N1 (stereo not given) | – | > 100 µM | > 100 | > 100 µM | – | – | > 100 µM | > 100 µM | > 100 µM | > 100 µM | – | – | – | – | – | – | – | – | – | –
O=C1/C(=C/c2ccc(F)cc2)CCOc2ccc([N+](=O)[O-])cc21 | 3.6 µM | > 100 µM | 30.5 | 10.8 µM | 3.01 µM | – | – | 3.5 µM | 8.33 µM | 36.5 µM | 1.84 | 41.6 | 16.7 | 3.15 | 1.5 | – | – | 1.8 | 2.89 | 16.5
O=C(/C=C/c1ccc(Cl)cc1)c1ccc(Cl)cc1Cl | 13.1 µM | 15.3 µM | 19.7 | 14.6 µM | 33.5 µM | – | 27.9 µM | 15.8 µM | 25.1 µM | 14 µM | 4.89 | 6.4 | 6.14 | 0.987 | 4.74 | – | 7.25 | 7.05 | 10.9 | 9.33
Cc1ccn2c3c(c(C(=O)O)c2c1)C(=O)c1ccccc1C3=O | 1.97 µM | > 100 µM | > 100 | > 100 µM | > 100 µM | – | > 100 µM | > 100 µM | > 100 µM | > 100 µM | 0.679 | 5.14 | 12.6 | > 42.1 | > 48.3 | – | > 100 | > 87.4 | 5.93 | 48
O=C(CCN1CCN(c2cnc3ccccc3n2)CC1)c1csc2ccccc12 | > 100 µM | > 100 µM | > 100 | – | > 100 µM | 91.6 µM | > 100 µM | 79.5 µM | > 100 µM | 92.5 µM | 60.3 | 62.6 | 28.2 | – | 36.2 | 24.2 | 35.2 | 28.4 | 58.6 | 36
CCOC(=O)C1=C(C)Nc2ccccc2S1 | > 100 µM | > 100 µM | > 100 | > 100 µM | > 100 µM | > 100 µM | – | > 100 µM | > 100 µM | > 100 µM | – | – | – | – | – | – | – | – | – | –
O=C1NC(c2ccc(O)cc2)C2CCC1C2 (stereo not given) | > 100 µM | – | > 100 | > 100 µM | > 100 µM | > 100 µM | > 100 µM | > 100 µM | > 100 µM | > 100 µM | – | – | – | – | – | – | – | – | – | –
CCC(C)C1NC(=O)c2nc(oc2-c2ccccc2)-c2csc(n2)-c2csc(n2)-c2nc(oc2C)-c2coc(n2)CNC(=O)C(C(C)CC)NC1=O (stereo not given) | – | 0.18 µM | – | 0.122 µM | 0.0335 µM | 0.175 µM | – | 0.172 µM | – | 0.0982 µM | – | 0.0361 | 0.0258 | 0.0263 | – | 0.0354 | – | 0.0499 | – | –
COc1ccc(-c2cc(-c3cc(Cl)ccc3Cl)nc3[nH]c(-c4cc(F)c(Cl)cc4Cl)cc(=O)c23)cc1 | 33.4 µM | 56.1 µM | > 100 | > 100 µM | 24.7 µM | > 100 µM | – | 52 µM | 32.2 µM | > 100 µM | 7.63 | 17.1 | > 100 | 16.5 | 9.69 | > 100 | – | 20.4 | 5.52 | 45
